According to the supplement of paper PMC10883282:

Legend:
Assay in all cases: relative viability vs DMSO control (72 h) (fraction); higher = more viable cells
G401 = system: G401
Method in brief: (§1)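 Relative viability was measured with ATPLite and expressed as percent growth, averaged across up to triplicate wells. Sarcoma cell lines had been seeded in 384-well plates to reach 80–90% confluence, dosed after 24 h, and incubated 72 h at 37 °C, 5% CO2. All data were rescaled on a scale where 1 is full and 0 is none.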

HT1080 = system: HT1080
Method in brief: as §1

KHOS-240S = system: KHOS-240S
Method in brief: as §1

MES-SA = system: MES-SA
Method in brief: as §1

RD-ES = system: RD-ES
Method in brief: as §1

RD = system: RD
Method in brief: as §1

SK-ES-1 = system: SK-ES-1
Method in brief: as §1

SK-LMS-1 = system: SK-LMS-1
Method in brief: as §1

SW1353 = system: SW1353
Method in brief: as §1

SW982 = system: SW982
Method in brief: as §1

SYO-1 = system: SYO-1
Method in brief: as §1

VA-ES-BJ = system: VA-ES-BJ
Method in brief: as §1

NC(=O)c1cnc2[nH]ccc2c1N[C@@H]1[C@@H]2CC3C[C@H]1C[C@@](O)(C3)C2 [Peficitinib]
Details | relative viability
G401, 0.00017 µM | 0.9962
G401, 0.00051 µM | 1.01
G401, 0.00152 µM | 1
G401, 0.00457 µM | 1.01
G401, 0.01372 µM | 1.05
G401, 0.04115 µM | 1.04
G401, 0.1235 µM | 1.08
G401, 0.3704 µM | 1.14
G401, 1.111 µM | 1.19
G401, 3.333 µM | 1.14
G401, 10 µM | 1.01
HT1080, 0.00017 µM | 1.058
HT1080, 0.00051 µM | 1.05
HT1080, 0.00152 µM | 1.06
HT1080, 0.00457 µM | 1.03
HT1080, 0.01372 µM | 1.03
HT1080, 0.04115 µM | 1.06
HT1080, 0.1235 µM | 1.06
HT1080, 0.3704 µM | 1.11
HT1080, 1.111 µM | 1.22
HT1080, 3.333 µM | 1.35
HT1080, 10 µM | 1.29
KHOS-240S, 0.00017 µM | 1.01
KHOS-240S, 0.00051 µM | 1.05
KHOS-240S, 0.00152 µM | 1.04
KHOS-240S, 0.00457 µM | 1.05
KHOS-240S, 0.01372 µM | 1.06
KHOS-240S, 0.04115 µM | 1.07
KHOS-240S, 0.1235 µM | 1.05
KHOS-240S, 0.3704 µM | 1.04
KHOS-240S, 1.111 µM | 1.03
KHOS-240S, 3.333 µM | 0.837
KHOS-240S, 10 µM | 0.498
MES-SA, 0.00017 µM | 0.913
MES-SA, 0.00051 µM | 0.9465
MES-SA, 0.00152 µM | 0.9008
MES-SA, 0.00457 µM | 0.918
MES-SA, 0.01372 µM | 0.9
MES-SA, 0.04115 µM | 0.94
MES-SA, 0.1235 µM | 0.945
MES-SA, 0.3704 µM | 0.971
MES-SA, 1.111 µM | 0.981
MES-SA, 3.333 µM | 0.769
MES-SA, 10 µM | 0.388
RD, 0.00017 µM | 1.03
RD, 0.00051 µM | 1.04
RD, 0.00152 µM | 1.04
RD, 0.00457 µM | 1.04
RD, 0.01372 µM | 1.03
RD, 0.04115 µM | 1.05
RD, 0.1235 µM | 1.07
RD, 0.3704 µM | 1.1
RD, 1.111 µM | 1.117
RD, 3.333 µM | 1.099
RD, 10 µM | 1.01
RD-ES, 0.00017 µM | 0.973
RD-ES, 0.00051 µM | 0.99
RD-ES, 0.00152 µM | 0.968
RD-ES, 0.00457 µM | 0.963
RD-ES, 0.01372 µM | 0.984
RD-ES, 0.04115 µM | 0.981
RD-ES, 0.1235 µM | 1
RD-ES, 0.3704 µM | 1.01
RD-ES, 1.111 µM | 1
RD-ES, 3.333 µM | 0.986
RD-ES, 10 µM | 0.227
SK-ES-1, 0.00017 µM | 0.984
SK-ES-1, 0.00051 µM | 1.01
SK-ES-1, 0.00152 µM | 1.02
SK-ES-1, 0.00457 µM | 0.97
SK-ES-1, 0.01372 µM | 0.9884
SK-ES-1, 0.04115 µM | 1.02
SK-ES-1, 0.1235 µM | 1.02
SK-ES-1, 0.3704 µM | 1.04
SK-ES-1, 1.111 µM | 0.989
SK-ES-1, 3.333 µM | 0.796
SK-ES-1, 10 µM | 0.102
SK-LMS-1, 0.00017 µM | 1.09
SK-LMS-1, 0.00051 µM | 1.09
SK-LMS-1, 0.00152 µM | 1.05
SK-LMS-1, 0.00457 µM | 1.076
SK-LMS-1, 0.01372 µM | 1.1
SK-LMS-1, 0.04115 µM | 1.07
SK-LMS-1, 0.1235 µM | 1.08
SK-LMS-1, 0.3704 µM | 1.08
SK-LMS-1, 1.111 µM | 1.13
SK-LMS-1, 3.333 µM | 1.11
SK-LMS-1, 10 µM | 0.965
SW982, 0.00017 µM | 1.03
SW982, 0.00051 µM | 1.03
SW982, 0.00152 µM | 1.016
SW982, 0.00457 µM | 1.03
SW982, 0.01372 µM | 1.02
SW982, 0.04115 µM | 1.05
SW982, 0.1235 µM | 1.032
SW982, 0.3704 µM | 0.986
SW982, 1.111 µM | 0.934
SW982, 3.333 µM | 0.751
SW982, 10 µM | 0.397
SW1353, 0.00017 µM | 1.03
SW1353, 0.00051 µM | 1.05
SW1353, 0.00152 µM | 1.01
SW1353, 0.00457 µM | 1.012
SW1353, 0.01372 µM | 1.04
SW1353, 0.04115 µM | 1.07
SW1353, 0.1235 µM | 1.04
SW1353, 0.3704 µM | 1.08
SW1353, 1.111 µM | 1.09
SW1353, 3.333 µM | 1.09
SW1353, 10 µM | 0.988
SYO-1, 0.00017 µM | 1
SYO-1, 0.00051 µM | 0.981
SYO-1, 0.00152 µM | 0.985
SYO-1, 0.00457 µM | 0.995
SYO-1, 0.01372 µM | 0.975
SYO-1, 0.04115 µM | 0.97
SYO-1, 0.1235 µM | 0.953
SYO-1, 0.3704 µM | 0.933
SYO-1, 1.111 µM | 0.705
SYO-1, 3.333 µM | 0.56
SYO-1, 10 µM | 0.405
VA-ES-BJ, 0.00017 µM | 1.06
VA-ES-BJ, 0.00051 µM | 1.03
VA-ES-BJ, 0.00152 µM | 1.01
VA-ES-BJ, 0.00457 µM | 1.01
VA-ES-BJ, 0.01372 µM | 1.04
VA-ES-BJ, 0.04115 µM | 1.06
VA-ES-BJ, 0.1235 µM | 1.04
VA-ES-BJ, 0.3704 µM | 1.05
VA-ES-BJ, 1.111 µM | 1.08
VA-ES-BJ, 3.333 µM | 1.042
VA-ES-BJ, 10 µM | 0.887
